Molecular target: recombinant IL4I1 (Homo sapiens (Human), UniProt Q96RQ9)
Assay: IL4I1 Enzymatic Assay (Amplex Red/HRP coupled H2O2 detection)
Type: biochemical
Conditions: 1 nM IL4I1, 1 mM each Phe/Tyr/Trp, four-hour pre-incubation, 120 minutes reaction, top compound concentration of 10000 nM
Protocol: Interleukin 4 inducible protein 1 (IL4I1) is an L-amino oxidase that catalyzes the oxidation of aromatic residues (Phe, Trp and Tyr): L-amino acid+H2O+O2→2-oxo acid+NH3+H2O2. Equal molar of H2O2 and the corresponding alpha-ketoacid are produced when IL4I1 and substrate are added. In this assay, the hydrogen peroxide generated by IL4I1 are then detected through a coupled reaction with Amplex Red (10-acetyl-3,7-dihydroxyphenoxazine) and […] (HRP) to produce Resorufin product that could be detected in the form of fluorescence signals. The assessment of the inhibitory effect of small molecules (EC50) on IL4I1 is measured by the effectiveness of the compounds to inhibit the production of H2O2.
Using this assay, the potency (EC50) of each compound was determined from a ten-point (1:3 serial dilution; top compound concentration of 10000 nM) titration curve using the following outlined procedure. To each well of a black flat-bottom Greiner (Cat #781076) 384 well-plate, 25 nL of compound (0.1% DMSO in final assay volume of 25 μL) was dispensed, followed by the addition of 12.5 μL of 1× assay buffer (50 mM Hepes 7.0 and 0.005% Tween20 (Sigma, Cat #P8341; low peroxide grade)) containing 2 nM of recombinant IL4I1 (R&D Systems, Cat #5684-AO-020). Plates were placed in an ambient temperature humidified chamber for a four-hour pre-incubation with compound. Subsequently, each reaction was initiated by the addition of 12.5 μL 1× assay buffer containing 2 mM of each aromatic amino acids (Phe/Tyr/Trp), 0.1 mM Amplex Red and 2 U/mL of HRP. The final reaction in each well of 25 μL consists of 1 nM of IL4I1, 1 mM of each residues (Phe, Tyr and Trp), 0.05 mM Amplex Red and 1 U/mL of HRP. It should be noted that the concentrations of Amplex Red and HRP used here are in excess such that the conversion of H2O2 to Resorufin product occurs instantaneously and non-rate limiting. Reactions were allowed to proceed for 120 minutes followed by fluorescence readout on a Spectramax with the following set parameters: 544 nm excitation/590 nm emission, 570 nm cutoff (EnVision is an alternative reader). Dose-response curves were generated by plotting percent effect (% product conversion; Y-axis) vs. Log10 compound concentrations (X-axis). EC50 values were calculated using a non-linear regression, four-parameters sigmoidal dose-response model.

recombinant IL4I1, sequence (Q96RQ9 22-567): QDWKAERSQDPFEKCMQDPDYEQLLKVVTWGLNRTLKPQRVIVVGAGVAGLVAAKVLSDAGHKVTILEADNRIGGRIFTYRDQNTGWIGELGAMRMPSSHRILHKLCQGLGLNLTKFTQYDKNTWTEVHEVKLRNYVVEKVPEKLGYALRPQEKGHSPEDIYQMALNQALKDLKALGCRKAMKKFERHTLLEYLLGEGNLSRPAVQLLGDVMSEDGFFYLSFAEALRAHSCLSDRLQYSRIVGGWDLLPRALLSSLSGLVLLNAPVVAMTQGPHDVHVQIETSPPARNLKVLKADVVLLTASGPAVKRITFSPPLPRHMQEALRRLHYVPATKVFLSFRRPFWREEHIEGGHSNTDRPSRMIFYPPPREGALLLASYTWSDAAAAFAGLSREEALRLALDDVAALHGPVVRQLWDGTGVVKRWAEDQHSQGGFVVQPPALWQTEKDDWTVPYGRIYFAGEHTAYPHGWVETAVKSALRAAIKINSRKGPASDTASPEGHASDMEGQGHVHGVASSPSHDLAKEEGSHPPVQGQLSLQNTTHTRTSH

SMILES	EC50
CC(=O)N1Cc2ccc(Cc3cc4ccccc4[nH]c3=O)cc2C1 [Example 83, 3-((2-acetylisoindolin-5-yl)methyl)quinolin-2(1H)-one]	3.8 nM
Cc1nc(C)c(Cc2cc3ccccc3[nH]c2=O)s1 [Example 134, 3-((2,4-dimethylthiazol-5-yl)methyl)quinolin-2(1H)-one]	5.1 nM
O=c1[nH]c2ccccc2cc1Cc1ccc2c(c1)S(=O)(=O)CC2 [Example 81, 3-((1,1-dioxido-2,3-dihydrobenzo[b]thiophen-6-yl)methyl)quinolin-2(1H)-one]	2.4 nM
O=c1[nH]c2ccccc2cc1Cc1ccc2scnc2c1 [Example 156, 3-(benzo[d]thiazol-5-ylmethyl)quinolin-2(1H)-one]	1.4 nM
Cc1noc(C)c1Cc1nnc(Cc2cc3ccccc3[nH]c2=O)o1 [Example 24, 3-((5-((3,5-dimethylisoxazol-4-yl)methyl)-1,3,4-oxadiazol-2-yl)methyl)quinolin-2(1H)-one]	194 nM
O=C(c1ccc(Cc2cc3ccccc3[nH]c2=O)cc1)N1CC(O)C1 [Example 1, 3-(4-(3-hydroxyazetidine-1-carbonyl)benzyl)quinolin-2(1H)-one]	15.5 nM
Cn1c(=O)c(CC2CC2c2ccccc2)cc2ccccc21 (stereo not drawn) [Example 175, 1-Methyl-3-((2-phenylcyclopropyl)methyl)quinolin-2(1H)-one]	7.7 nM
O=c1[nH]c2ccccc2cc1Cc1ccc2nccnc2c1 [Example 157, 3-(quinoxalin-6-ylmethyl)quinolin-2(1H)-one]	6.2 nM
O=C1NCc2ccc(Cc3cc4cnccc4[nH]c3=O)cc21 [Example 118, 3-((3-oxoisoindolin-5-yl)methyl)-1,6-naphthyridin-2(1H)-one]	11.1 nM
O=c1[nH]c2ccccc2cc1Cc1nnc(-c2ccn3ncnc3c2)o1 [Example 26, 3-((5-([1,2,4]triazolo[1,5-a]pyridin-7-yl)-1,3,4-oxadiazol-2-yl)methyl)quinolin-2(1H)-one]	314 nM
O=c1[nH]c2ccccc2cc1Cc1nnc(-c2cn3cccnc3n2)o1 [Example 12, 3-((5-(imidazo[1,2-a]pyrimidin-2-yl)-1,3,4-oxadiazol-2-yl)methyl)quinolin-2(1H)-one]	429 nM
O=c1[nH]c2ccccc2cc1Cc1cnn2c1CCC2 [Example 135, 3-((5,6-dihydro-4H-pyrrolo[1,2-b]pyrazol-3-yl)methyl)quinolin-2(1H)-one]	11.3 nM
O=C1OCCN1c1ncc(Cc2cc3ccccc3[nH]c2=O)cc1Cl [Example 53]	5.6 nM
CC(C)(C#N)n1cc(Cc2cc3ccccc3[nH]c2=O)cn1 [Example 148, 2-methyl-2-(4-((2-oxo-1,2-dihydroquinolin-3-yl)methyl)-1H-pyrazol-1-yl)propanenitrile]	258 nM
N#CC1(c2cccc(Cc3cc4cnccc4[nH]c3=O)c2)CC1 [Example 116, 1-(3-((2-oxo-1,2-dihydro-1,6-naphthyridin-3-yl)methyl)phenyl)cyclopropane-1-carbonitrile]	1.7 nM
O=c1[nH]c2ncccc2cc1Cc1cccc(OC(F)(F)F)c1 [Example 106, 3-(3-(trifluoromethoxy)benzyl)-1,8-naphthyridin-2(1H)-one]	958 nM
CC(C)(O)c1ccc(Cc2cc3cnccc3[nH]c2=O)cc1Cl [Example 184, 3-(3-Chloro-4-(2-hydroxypropan-2-yl)benzyl)-1,6-naphthyridin-2(1H)-one]	15.3 nM
CS(=O)(=O)NCc1ccc(Cc2cc3ccccc3[nH]c2=O)cc1 [Example 73, N-(4-((2-oxo-1,2-dihydroquinolin-3-yl)methyl)benzyl)methanesulfonamide]	6.4 nM

SMILES	EC50
N#CC1(c2ccc(Cc3cc4ccccc4[nH]c3=O)cc2)COC1 [Example 147, 3-(4-((2-oxo-1,2-dihydroquinolin-3-yl)methyl)phenyl)oxetane-3-carbonitrile]	2.3 nM
CC1(O)CN(C(=O)c2ccc(Cc3cc4ccccc4[nH]c3=O)cc2)C1 [compound 2, 3-(4-(3-hydroxy-3-methylazetidine-1-carbonyl)benzyl)-quinolin-2(1H)-one]	34.8 nM
O=c1[nH]c2ccccc2cc1Cc1ccc([C@@H]2CCNC2)cc1 [65A]	7.1 nM
O=c1[nH]c2ccccc2cc1Cc1nnc(-c2scnc2Cl)o1 [Example 38, 3-((5-(4-chlorothiazol-5-yl)-1,3,4-oxadiazol-2-yl)methyl)quinolin-2(1H)-one]	25.2 nM
Cn1c(=O)c(Cc2ccc(C(C)(C)O)cc2)cc2ccccc21 [Example 143, 3-(4-(2-hydroxypropan-2-yl)benzyl)-1-methylquinolin-2(1H)-one]	2.6 nM
CC(=O)NCc1ccc(Cc2cc3ccccc3[nH]c2=O)cc1Cl [Example 66, N-(2-chloro-4-((2-oxo-1,2-dihydroquinolin-3-yl)methyl)benzyl)acetamide]	2 nM
O=c1[nH]c2ccccc2cc1Cc1nnc(-c2cc(Cl)ccc2Cl)o1 [Example 11, 3-((5-(2,5-dichlorophenyl)-1,3,4-oxadiazol-2-yl)methyl)quinolin-2(1H)-one]	2.2 nM
O=C1CCc2cc(Cc3cc4ccccc4[nH]c3=O)ccc2N1 [Example 154, 3-((2-oxo-1,2,3,4-tetrahydroquinolin-6-yl)methyl)quinolin-2(1H)-one]	5.4 nM
Cc1cc(Cc2cc3ccccc3[nH]c2=O)cnc1-c1cccc(F)c1 [Example 131, 3-((6-(3-fluorophenyl)-5-methylpyridin-3-yl)methyl)quinolin-2(1H)-one]	3.7 nM
CC1(Nc2ccc(Cc3cc4ccccc4[nH]c3=O)cc2)CNC1 [Example 58, 3-(4-((3-methylazetidin-3-yl)amino)benzyl)quinolin-2(1H)-one]	9.8 nM
O=C1COc2ccc(Cc3cc4ccccc4[nH]c3=O)cc2N1 [Example 155, 6-((2-oxo-1,2-dihydroquinolin-3-yl)methyl)-2H-benzo[b][1,4]oxazin-3(4H)-one]	2 nM
CC(C)(O)c1ccc(Cc2cc3ccccc3[nH]c2=O)cc1Cl [Example 80, 3-(3-chloro-4-(2-hydroxypropan-2-yl)benzyl)quinolin-2(1H)-one]	3.3 nM
CC(=O)NCc1ccc(Cc2cc3ccccc3[nH]c2=O)cc1C [Example 168, N-(2-methyl-4-((2-oxo-1,2-dihydroquinolin-3-yl)methyl)benzyl)acetamide]	3.4 nM
Cn1cc2c(Cc3cc4cc(F)ccc4[nH]c3=O)cccc2n1 [Example 163, 6-fluoro-3-((2-methyl-2H-indazol-4-yl)methyl)quinolin-2(1H)-one]	5.4 nM
O=C1COc2ccc(Cc3cc4ccccc4[nH]c3=O)c(F)c2N1 [Example 171, 5-Fluoro-6-((2-oxo-1,2-dihydroquinolin-3-yl)methyl)-2H-benzo[b][1,4]oxazin-3(4H)-one]	7 nM
O=c1[nH]c2ccccc2cc1Cc1nnc(C2CCCCC2)o1 [Example 9, 3-((5-cyclohexyl-1,3,4-oxadiazol-2-yl)methyl)quinolin-2(1H)-one]	51.1 nM
CC(=O)NCc1ncc(Cc2cc3ccccc3[nH]c2=O)cc1Cl [Example 68, N-((3-chloro-5-((2-oxo-1,2-dihydroquinolin-3-yl)methyl)pyridin-2-yl)methyl)acetamide]	12.3 nM
O=c1[nH]c2ccccc2cc1Cc1nnc(C2CCC2)o1 [Example 32, 3-((5-cyclobutyl-1,3,4-oxadiazol-2-yl)methyl)quinolin-2(1H)-one]	168 nM

Source: patent publication US20240287022A1 (Merck Sharp & Dohme LLC, priority 2021, published 2024)
